{"source": "patent US12152012B2", "about": "“BRAG2 inhibitors and applications thereof” (CENTRE NATIONAL DE LA RECHERCHE SCIENTIFIQUE, priority 2018, dated 2024)", "key": {"BRAG2 (BRAG2^Sec7PH)": {"target": "T1, BRAG2 (BRAG2^Sec7PH) (Homo sapiens, UniProt Q6DN90)", "T1 construct": "human BRAG2^Sec7 (390-594) and BRAG2^Sec7PH (390-811); made in house", "T1 sequence (Q6DN90 512-933)": "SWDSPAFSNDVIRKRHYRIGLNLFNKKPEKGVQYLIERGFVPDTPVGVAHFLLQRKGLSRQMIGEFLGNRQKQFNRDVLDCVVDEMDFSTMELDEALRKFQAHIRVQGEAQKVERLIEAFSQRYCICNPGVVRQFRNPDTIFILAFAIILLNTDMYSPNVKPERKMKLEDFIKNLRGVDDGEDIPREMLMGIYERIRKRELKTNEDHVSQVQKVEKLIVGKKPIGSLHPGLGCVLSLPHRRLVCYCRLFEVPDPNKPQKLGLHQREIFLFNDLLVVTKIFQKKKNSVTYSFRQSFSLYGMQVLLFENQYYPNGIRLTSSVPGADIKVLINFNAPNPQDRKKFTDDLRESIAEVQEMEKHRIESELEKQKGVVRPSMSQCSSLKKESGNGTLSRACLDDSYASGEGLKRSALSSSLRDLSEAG", "experiment": "Nucleotide exchange kinetics on liposomes, activation of myristoylated Arf1", "assay_type": "biochemical", "description": "The effect of Bragsin1 on the GEF efficiency of representative human ArfGEFs was evaluated by fluorescence kinetics using highly purified recombinant Arf GTPases and ArfGEFs. In a first series of assays, the Sec7 domains of BIG1, a Golgi ArfGEF, and of ARNO, EFA6a and BRAG2, which function at the plasma membrane, were used. When tested in solution, Bragsin1 had no effect on the activation of Arf1 by any of these Sec7 domains (FIGS. 2a and 14). Separately, we reconstituted the activation of myristoylated Arf1 by the same ArfGEFs on liposomes using ArfGEF constructs that contain a membrane-binding domain (DCB-HUS domain for BIG1, PH domains for the other GEFs). […] BRAG2 activates several Arf isoforms, including the plasma membrane-located Arf6 isoform. […] Bragsin1 and Bragsin2 have the same IC50 towards BRAG2 ([…]) according to dose-response analysis, confirming that Bragsin1 and Bragsin2 can be used interchangeably (FIG. 2d). The specific inhibition of BRAG2 by Bragsin in vitro predicts that BRAG2 silencing by siRNA should yield the same phenotype as treatment by the small molecule. Silencing of BRAG2 induced the redistribution of TGN46 into tubular or punctate structures, which phenocopied the effects induced by Bragsin (FIGS. 2e, 17 and 18). […] Silencing of ARNO, which is located at the plasma membrane, had no effect on TGN46 distribution. Overexpression of BRAG2-mCherry rescued the dispersion of the TGN46 structure induced by Bragsin, which is consistent with the silencing experiments (FIG. 2f). Bragsin is a specific inhibitor of the ArfGEF BRAG2 in vitro and in cells according to these experiments. These oexperiments identify a mechanism of inhibition that requires the membrane to manifests itself.\nBovine Δ17Arf1 and human Δ13Arf6, full-length myristoylated Arf1 and Arf6, human BRAG2^Sec7 (390-594) and BRAG2^Sec7PH (390-811), human EFA6^Sec7 (527-727) and EFA6^Sec7PHCt (527-1024), ARNO^Sec7 (50-256), BIG1^Sec7 (691-889), BIG1^DcbHusSec7 (2-888) and ARNO^Sec7PH (50-399) were expressed and purified as in (Benabdi, S. et al. Family-wide Analysis of the Inhibition of Arf Guanine Nucleotide Exchange Factors with Small Molecules: Evidence of Unique Inhibitory Profiles. Biochemistry 56, 5125-5133 (2017)) and references therein. BRAG2^Sec7PH mutants were purified as the wild type protein. Purification of human full-length Rac1 carrying a 6xHis tag in C-terminus and human TRIO^DH1PH1 (1232-1550) was described in (Peurois, F. et al. Characterization of the activation of small GTPases by their GEFs on membranes using artificial membrane tethering. Biochem J 474, 1259-1272 (2017)).\nLipids (of natural origin) were from Avanti Polar Lipids, except NBD-PE from Sigma. Liposomes were prepared as described in (Aizel, K. et al. Integrated conformational and lipid-sensing regulation of endosomal ArfGEF BRAG2. PLOS Biol 11, e1001652 (2013)) and extruded at 0.2 μm. For the Arf GEF specificity studies, liposomes contained 48% phosphatidylcholine (PC), 20% phosphatidylethanolamine (PE), 30% phosphatidylserine (PS) and 2% phosphatidylinositol-4,5-bisphosphate (PIP2). For Rac activation assay, liposomes contained 43% PC, 20% PE, 10% PS, 20% cholesterol, 2% PIP2, 5% NiNTA lipids and 0.2% NBD-PE. To exclude aggregation or disruption of the liposomes, their size distribution was controlled before and after experiments by dynamic light scattering as described in (Benabdi, S. et al. Biochemistry 56, 5125-5133 (2017)). Dose-response and flotation assays were carried out with liposomes containing 37.9% PC, 20% PE, 20% PS, 2% PIP2, 20% cholesterol and 0.1% NBD-PE. Flotation assays were carried out as in 18.\nNucleotide exchange kinetics were monitored by tryptophan fluorescence with excitation/emission wavelengths of 292/340 nm using a Cary Eclipse fluorimeter (Varian) at 37° C. and under continuous stirring as described in ^50,51. […]"}, "[1]": {"system": "TGN46 (trans-Golgi network marker) in Hela cells", "experiment": "Immunostaining and confocal microscopy of Hela cells", "assay_type": "cell-based, human", "settings": "50 μM"}}, "data": [{"smiles": "COc1cc(OC)c2oc(C(F)(F)F)cc(=O)c2c1[N+](=O)[O-]", "note": "[Bragsin3, 6,8-dimethoxy-5-nitro-2-(trifluoromethyl)-4H-chromen-4-one]", "values": [{"measurement": "Inhibition of BRAG2 in the presence of liposomes", "setting": "BRAG2 (BRAG2^Sec7PH); 50 μM compound vs DMSO, myristoylated Arf1, liposomes", "value": "strongly inhibits"}, {"measurement": "Dispersion of TGN46 marker", "setting": "[1]", "value": "disperses"}]}, {"smiles": "COc1ccc2oc(C(F)(F)F)cc(=O)c2c1", "note": "[Compound 3, 6-methoxy-2-(trifluoromethyl)-4H-chromen-4-one]", "values": [{"measurement": "Dispersion of TGN46 marker", "setting": "[1]", "value": "not capable to disperse"}]}, {"smiles": "COc1ccc2oc(C(F)(F)F)cc(=O)c2c1C=O", "note": "[Compound 5, 6-methoxy-4-oxo-2-(trifluoromethyl)-4H-chromene-5-carbaldehyde]", "values": [{"measurement": "Dispersion of TGN46 marker", "setting": "[1]", "value": "less effect"}]}, {"smiles": "COc1ccc2oc(C(F)(F)F)cc(=O)c2c1C(=O)O", "note": "[Compound 6, 6-methoxy-4-oxo-2-(trifluoromethyl)-4H-chromene-5-carboxylic acid]", "values": [{"measurement": "Dispersion of TGN46 marker", "setting": "[1]", "value": "not capable to disperse"}]}, {"smiles": "Cc1ccc2c(c1[N+](=O)[O-])C(=O)CC(O)(C(F)(F)F)O2", "note": "(stereo not drawn) [Compound 13, 2-hydroxy-6-methyl-5-nitro-2-(trifluoromethyl)chroman-4-one]", "values": [{"measurement": "Biological activity of hydrated derivative", "setting": "BRAG2 (BRAG2^Sec7PH); derivative formed from Bragsin1 in aqueous solution", "value": "biologically inactive"}]}]}
